As usually defined, the Kd is the constant that tells how readily two partners part at equilibrium. The low end stands for tighter binding, the high end for weaker binding.

These results are taken from paper PMC13464545, “Mouse Norovirus Uses Host Metabolites to Enhance Receptor Binding and Evade Immune Recognition” (Medical research archives, 2022).

This test deals with T1, MNV P domain (Murine norovirus 1, UniProt Q80J94).
T1 construct: gene ORF2; C-terminal protruding (P) domain of VP1, expressed as soluble form without the shell domain; dimerizes
T1 sequence (Q80J94 229-541): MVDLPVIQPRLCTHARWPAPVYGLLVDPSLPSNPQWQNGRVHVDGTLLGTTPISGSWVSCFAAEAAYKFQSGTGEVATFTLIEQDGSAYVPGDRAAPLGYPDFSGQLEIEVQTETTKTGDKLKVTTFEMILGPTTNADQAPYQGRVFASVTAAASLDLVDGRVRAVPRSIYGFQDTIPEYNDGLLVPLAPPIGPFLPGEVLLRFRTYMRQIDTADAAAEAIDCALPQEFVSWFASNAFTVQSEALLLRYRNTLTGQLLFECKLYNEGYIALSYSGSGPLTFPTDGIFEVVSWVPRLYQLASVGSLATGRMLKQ
Description: isothermal titration calorimetry. Format: binding. On the technique in general: In ITC the heat of successive injections is recorded.

Compound `C[C@H](CCC(=O)NCC(=O)O)[C@H]1CC[C@H]2[C@@H]3[C@H](O)C[C@@H]4C[C@H](O)CC[C@]4(C)[C@H]3CC[C@]12C` [GCDCA] registered a Kd of approximately 13 µM.
